How the values were obtained:
Transthyretin [1] = molecular target: T1, Transthyretin (Homo sapiens, UniProt P02766); test: Inhibition of human transthyretin fibril formation at pH 4.4 after 72 hrs
Transthyretin [2] = molecular target: T1, Transthyretin; test: Inhibition of human transthyretin assessed as amyloid fibril formation at pH 4.4 after 72 hrs relative to control; set-up: scale not given: the % may be the effect or the level left

O=C(O)c1ccccc1Nc1cccc(C(F)(F)F)c1 [FLUFENAMIC ACID]
IC50 (Transthyretin [1]): 2900 nM
Activity (Transthyretin [2]): 14%

From ChEMBL document CHEMBL1147072, “Synthesis and evaluation of transthyretin amyloidosis inhibitors containing carborane pharmacophores” (Proc Natl Acad Sci U S A, 2007)
